For test [1], the system named is Lewis lung carcinoma. The test is described as follows: Primary tumor growth assay, Lewis lung carcinoma. The note with it: 2.5 mg/kg/day IP daily, treatment day 12. In kind it is in vivo, C57BL/6 mice. The procedure: The proteins for injection were mixed with Polymyxin B-Agarose (Sigma) for 30 minutes at room temperature to remove endotoxin. The endotoxin levels were less than 0.05 EU/mg as determined using the QCL-1000 assay kit (Biowhittaker, Walkersville, Md.). Proteins were filter-sterilized and the protein concentration was determined prior to injection. Five to eight week old C57BL/6 mice (Taconic, Germantown, N.Y.) were acclimated, caged in groups of four or less and their backs were shaved. Cultured B16F10 melanoma or Lewis lung carcinoma cells (1×10^6) were inoculated subcutaneously on the back of each mouse. Tumors were measured with a dial-caliper and the volumes were determined using the formula width^2×length×0.52. The treatment began 4 days after inoculation of the tumor cells. […] The experiments were terminated and mice sacrificed when the control mice began to die, usually at day 16 post-tumor cell injection.

Test [2] has as its system Human dermal microvessel endothelial cells (HDMEC). The test is described as follows: In vitro endothelial cell migration assay (FGF-2 induced, transwell). The test is classed as cell-based. How it is done:
Human dermal microvessel endothelial cells (HDMEC) were isolated by the procedure of Richard et al., Exp. Cell Res. 240:1–6 (1998). The cells were cultured in Vitrogen precoated dishes, and maintained in EBM (Clonetics Corp, San Diego, Calif.) containing 20% fetal bovine serum (FBS), 1 mg/ml hydrocortisone acetate, 5×10^−5 M dibutyryl-cAMP, 200 U/ml penicillin, 100 U/ml streptomycin, 250 mg/ml amphotericin and 2–5 ng/ml VEGF. Murine melanoma B16F10 and murine Lewis lung carcinoma cells were obtained from the ATCC, and were maintained in Dulbecco's Modified Eagle Media (DMEM) supplemented with 10% FBS, […] penicillin, 50 U/ml streptomycin, and 2 mM glutamine (supplemented DMEM). Mink lung epithelial cells (MLECs-Clone 32) that have been stably transfected with an 800 bp fragment of the plasminogen activator inhibitor-1 (PAI-1) promoter fused to the firefly luciferase reporter gene were kindly provided by Dr. Daniel Rifkin (Abe, M. et al., Anal. Biochem. 216:276–284, 1994). The transfected MLECs were maintained in supplemented DMEM.
Cells at passage 7–10 were serum-starved and maintained in EBM with 0.1% BSA (control media) for 20 hours before trypsinization to harvest the cells. Cells were washed in EBM twice and resuspended in control media at a concentration of 1×10^6 cells/ml. […] of cells were packed down and kept frozen. They were lysed and serially diluted by CyQuant reagent (Molecular Probe, Eugene, Oreg.) to be used for standard curve construction.
Transwell membrane (24-well polycarbonate membrane, […] from Corning Costar Corporation, Cambridge, Mass.) coated with Vitrogen (30 mg/ml, Invitrogen) on both sides was used for chemotactic migration experiments. Coated transwells were inverted, […] of cell suspension applied to the top of the membrane and covered by the bottom plate carefully so that the cell suspension stayed on top of the membrane. The cells were allowed to adhere to the coated membrane for two hours in an incubator at 37° C. with 5% CO2. After the adhesion incubation, the plates were re-inverted, the bottom wells were filled with 0.4 ml control media and the top wells were filled with 0.1 ml control media containing testing reagents. The plate was returned to the incubator for 3.5 hours for the cells to migrate. At the end of the incubation, the transwells were washed in PBS and the cells on the […] of the membrane (unmigrated cells) were wiped away with a cotton swab. The membranes were cut out by scalpel and placed into 96-well plates and frozen at −80° C. overnight. […] Fluorescence reading was done 16 hours later with a SpectraFluor plate reader with excitation at 485 nm and emission at […]. The number of cells migrated was then calculated based on the standard curve.

Test [3] concerns B16F10 melanoma. The test is described as follows: Primary tumor growth assay, B16F10 melanoma. In kind it is in vivo, C57BL/6 mice. The procedure: The proteins for injection were mixed with Polymyxin B-Agarose (Sigma) for 30 minutes at room temperature to remove endotoxin. The endotoxin levels were less than 0.05 EU/mg as determined using the QCL-1000 assay kit (Biowhittaker, Walkersville, Md.). Proteins were filter-sterilized and the protein concentration was determined prior to injection.
Five to eight week old C57BL/6 mice (Taconic, Germantown, N.Y.) were acclimated, caged in groups of four or less and their backs were shaved. Cultured B16F10 melanoma or Lewis lung carcinoma cells (1×10^6) were inoculated subcutaneously on the back of each mouse. Tumors were measured with a dial-caliper and the volumes were determined using the formula width^2×length×0.52. The treatment began 4 days after inoculation of the tumor cells. […] The experiments were terminated and mice sacrificed when the control mice began to die, usually at day 16 post-tumor cell injection.
Each treatment group contained six five- to eight-week old C57BL/6 mice. Treatment was initiated four days after subcutaneous injection of 1×10^6 B16F10 melanoma cells. The mice received one IP injection each day of saline, TSR2, TSR2+RFK or TSR2+QFK (SEQ ID NO: 23). A soluble form of the TGFβ receptor (100 μg/mouse/injection) (Smith, J. D. et al., Circulation Research 84:1212–1222, 1999) was included in the saline or TSR2+RFK injections on treatment day 1 and 7 for two additional experimental groups. The recombinant TSR-containing proteins were used at 1.0 mg/kg/day.
Each treatment group contained six five- to eight-week old C57BL/6 mice. Treatment was initiated four days after subcutaneous injections of 1×10^6 B16F10 melanoma cells. The mice received one IP injection each day, of saline, all three type 1 repeats of human TSP-1 [3TSR (TSP1) in FIG. 9] or all three type 1 repeats of mouse TSP-2 [3TSR (TSP2) in FIG. 9]. Recombinant proteins were used at a dose of 2.5 mg/kg/day.

For test [4], the system named is B16F10 tumor cell. The test is described as follows: B16F10 tumor cell proliferation in vitro. In kind it is cell-based, murine.

On to “3TSR: recombinant protein containing all three TSRs of human TSP-1, amino acids 361–530”, for which, in test [1], the “inhibition of Lewis lung carcinoma tumor growth” value was found to be 73%. Besides, the “concentration maximally effective in inhibiting endothelial cell migration” value in test [2] (HDMEC migration in response to FGF-2) was 10 ng/mL. For the same molecule, the “B16F10 tumor growth inhibition (in words)” value is reported as “less effective” in test [3] (0.25 mg/kg/day IP daily) and “remains maximally active” in test [3] (10 mg/kg/day). In addition, the “inhibition of B16F10 tumor growth (tumor volume)” value in test [3] (2.5 mg/kg/day IP daily) stood at 81%. Also, the “B16F10 tumor growth inhibition compared with TSP-1 (in words)” value in test [3] (dosages of 1.0 mg/kg/day and greater) is on record as “more effective than TSP-1”.

With TGFβ [reference compound], in test [4], the “B16F10 tumor cell proliferation in vitro (in words)” value is recorded as “inhibit”.

Turning to “TSP-1: Human TSP-1 purified from the supernatant of thrombin-treated platelets”, in test [2] (biphasic response, concentrations above this level are less effective), the “concentration up to which inhibition of endothelial cell migration is dose-dependent” value was determined as 100 ng/mL. Also, the “reduction of tumor growth” value in test [3] (0.25 mg/kg/day (0.6 nmoles/kg/day) injection) stood at 56%. Moreover, in test [3] (2.5 mg/kg/day IP daily), the “B16F10 tumor growth inhibition (in words)” value is listed as “no effect”. Moreover, in test [3] (systemic injection, 0.25 mg/ml as printed, twelfth treatment day), the “inhibition of tumor growth” value is given as 56%.

For “TSR2+QFK: recombinant version of the TSR2+RFK protein in which Q is substituted for R (arginine 413 to glutamine)”, the “B16F10 tumor growth inhibition (in words)” value in test [3] (1.0 mg/kg/day IP daily, FIG. 8) is reported as “less effective as an inhibitor of tumor growth than TSR2+RFK”.

B1: 3TSR (TSP2): recombinant protein with all three TSRs of mouse TSP-2, amino acids Asp 381 through Ile 550 (protein, listed as Mus musculus)
chain: DEGWSPWAEWTECSVTCGSGTQQRGRSCDVTSNTCLGPSIQTRTCSLGKCDTRIRQNGGWSHWSPWSSCSVTCGVGNVTRIRLCNSPVPQMGGKNCKGSGRETKPCQRDPCPIDGRWSPWSPWSACTVTCAGGIRERSRVCNSPEPQYGGKDCVGDVTEHQMCNKRSCPI
Take B1: in test [3] (2.5 mg/kg/day IP daily), the “B16F10 tumor growth inhibition (in words)” value is recorded as “significantly less potent”.
